The values below come from article PMC8869720, “A Sensitive Monoclonal-Antibody-Based ELISA for Forchlorfenuron Residue Analysis in Food Samples” (Biosensors, 2022).

Values after ≈ are worked out from the molar mass of the structure shown. Like-named read-outs stand apart in the source and are kept apart here.

One test concerns anti-CPPU mAb. Kind of test: optimized indirect competitive ELISA (icELISA) with anti-CPPU monoclonal antibody. It counts as binding, mouse. Particulars: for Cross-Reactivity: CR (%) = IC50 CPPU/IC50 structural analogue × 100. Here is the method: (§1) The icELISA protocol was performed as described previously. Briefly, 100 µL/well of coating antigen (1 µg/mL in CBS) was added to 96-well microtiter plates and stored at 37 °C overnight. The plate was rinsed twice with washing buffer and blocked by PBST containing 5% skimmed milk powder (120 µL/well) for 3 h at 37 °C. Then, the plate was rinsed twice and dried at 37 °C for 60 min. CPPU standard in PBS (50 µL) and the antibodies diluted in PBS (50 µL) were added and incubated at 37 °C for 40 min. After rinsing five times, the goat anti-mouse IgG-HRP was added (100 µL/well), followed by incubation for 30 min at 37 °C. After rinsing five times, the TMB solution (100 µL/well) was added and incubated for another 10 min at 37 °C. Stopping reagent (50 µL/well) was injected into each well to stop the chromogenic reaction, and the absorbance at 450 nm was measured using a microplate reader.
Many reports have shown that the immunoassay is an equilibrium binding reaction, and the experimental parameters used can affect the performance of the ELISA [28, 31, 32, 33]. In order to improve sensitivity of the established icELISA, the assay was optimized on concentrations of coating antigen and antibody, working buffer, and IgG-HRP dilution multiple. A standard curve for CPPU was obtained under optimal conditions by four-parameter sigmoidal fitting with Origin 9.0 software (OriginLab Corporation, Northampton, MA, USA). The IC10, IC20, IC50, and IC80 values correspond to the CPPU concentration levels that inhibit 10%, 20%, 50%, and 80% of the binding between mAb and the coating antigen, respectively. The IC10 value represents the LOD of the assay. The concentration levels from IC20 to IC80 are the linear range of the assay.
To evaluate the specificity of the mAb against CPPU, CR values with six structural analogs were chosen for evaluation. The CR values were calculated using Equation (1):CR (%) = IC50 CPPU/IC50 structural analogue × 100(1)

A further test concerns monoclonal antibody. Details: method as in PMID 22526663. To be noted: previous mAb-based ELISA for CPPU; cited from earlier work. For orientation: ELISA stands for enzyme-linked immunosorbent assay.
Test [1] deals with monoclonal antibody (mAb). Details: method as in doi:10.14088/j.cnki.issn0439-8114.2016.21.037. Particulars: immunogen CPPU-H1-BSA, coating antigen CPPU-H2-OVA; cited from earlier work.
Test [2] has as its system mice antisera against CPPU. Kind of test: icELISA characterization of mice antisera: inhibition by CPPU. It is filed as binding, mouse. Particulars: 1 μg/mL of competitor. As to the method:
At the first immunization, each eight-week-old Balb/c female mouse was injected subcutaneously with 200 µL of an emulsion containing an equal volume of immunogen (1.0 mg/mL) and Freund’s complete adjuvant. In the subsequent booster immunizations, Freund’s incomplete adjuvant was substituted for Freund’s complete adjuvant and was injected at two-week intervals. After the third booster injection, the antisera were collected 7 days after each injection and checked by icELISA.
as §1

Test [3] deals with rabbit polyclonal antibody. Details: method as in earlier work. Particulars: rabbit polyclonal antibody icELISA; cited from earlier work.
A further test has as its system antisera to CPPU. Details: method as in PMID 18989973, PMID 20681638, PMID 22526663. Particulars: high-affinity antisera, Abad-Fuentes group; cited from earlier work.
[4] abbreviates: optimum conditions: coating antigen 250 ng/mL, antibody 1:8000 dilution, PBS, IgG-HRP 1:5000.

`O=C(O)c1nc(Cl)ccc1Cl` [3,6-Dichloropicolinic] came in with a Cross-Reactivity in the test on anti-CPPU mAb of 0.63%. Moreover, the IC50 with anti-CPPU mAb (setting [4]) worked out at 0.1662 µg/mL.
For `CON(C)C(=O)Nc1ccc(Cl)c(Cl)c1` [Linuron], in that order: 0.46% and 0.22643 µg/mL.
Compound `CN(C)C(=O)Nc1ccc(Cl)c(Cl)c1` [Diuron] displayed a Cross-Reactivity in the test on anti-CPPU mAb of 0.13%. For the same compound, the IC50 with anti-CPPU mAb (setting [4]) came to 0.82379 µg/mL.
Take `O=C(Nc1ccccc1)Nc1cnns1` [Thidiazuron (TDZ), Thidiazuron]: the “cross-reactivity (CR)” value in the test on monoclonal antibody was 71%. The figures for the Cross-Reactivity in the test on anti-CPPU mAb and with anti-CPPU mAb (listed as TDZ) were 5.36% and “less than 6%”, respectively. This compound also registered an IC50 in the test with anti-CPPU mAb (setting [4]) of 0.01942 µg/mL.
In the test with anti-CPPU mAb, `Nc1c(Cl)c(Cl)nc(C(=O)O)c1Cl` [Picloram] gave a Cross-Reactivity of 0.23%. The IC50 with anti-CPPU mAb (setting [4]) was 0.45072 µg/mL.
For `O=C(Nc1ccccc1)Nc1ccnc(Cl)c1` [CPPU, Forchlorfenuron], the IC50 in test [1] was 0.00389 µg/mL (≈ 0.0157 µM); in the test with anti-CPPU mAb (IC50 1.04 ng/mL given in nM, read-out: IC50), 4.2 nM; with anti-CPPU mAb (setting [4]) it was 0.00104 µg/mL; in test [3], 0.048 µg/mL (≈ 0.194 µM); in the test on antisera to CPPU it was below 1 nM. The same compound had a Cross-Reactivity in the test on anti-CPPU mAb of 100%. Further, in the test with anti-CPPU mAb (optimum conditions, IC10 value represents the LOD), the “limit of detection (LOD, IC10)” value stood at 0.00016 µg/mL. Also, the “Inhibition of CPPU” value in test [2] (immunogen CPPU-COOH-BSA, coating antigen CPPU-COOH-OVA) is given as 58.4%; in test [2] (immunogen CPPU-COOH-KLH, coating antigen CPPU-COOH-BSA) it was 55.6%; in test [2] (immunogen CPPU-COOH-KLH, coating antigen CPPU-COOH-OVA), 55.9%; in test [2] (immunogen CPPU-COOH-THY, coating antigen CPPU-COOH-BSA), 83.3%; in test [2] (immunogen CPPU-COOH-THY, coating antigen CPPU-COOH-OVA), 82.9%. The LOD in test [3] is on record as 1 ng/mL.
For `Cc1ccc(NC(=O)N(C)C)cc1Cl` [Chlortoluron], in the test with anti-CPPU mAb, the Cross-Reactivity worked out at 1.62%. Besides, the IC50 with anti-CPPU mAb (setting [4]) came out at 0.06434 µg/mL.

A word on the IC50: it is the concentration that gives 50% inhibition.
